According to article PMC6013247, “Preclinical characterization of INCB053914, a novel pan-PIM kinase inhibitor, alone and in combination with anticancer agents, in models of hematologic malignancies” (PLoS ONE, 2018):

Experiments:
[1] = test system: panel of 192 kinases; test: Broader panel of 192 kinases (PerkinElmer); type: biochemical; conditions: INCB053914 100 nM; results not shown
[2] = biological target: MSSK1 (Homo sapiens, UniProt Q9UPE1); test: Kinase selectivity panel; type: biochemical; conditions: [ATP] = 1 mM
[3] = biological target: PDGFR BETA (Homo sapiens, UniProt P09619); test: Kinase selectivity panel; type: biochemical; conditions: [ATP] = 1 mM
[4] = biological target: FLT3 (Homo sapiens, UniProt P36888); test: Kinase selectivity panel; type: biochemical; conditions: [ATP] = 1 mM
[5] = biological target: IKKA (Homo sapiens, UniProt O15111); test: Kinase selectivity panel; type: biochemical; conditions: [ATP] = 1 mM
[6] = biological target: MAP3K8 (Homo sapiens, UniProt P41279); test: Kinase selectivity panel; type: biochemical; conditions: [ATP] = 1 mM
[7] = biological target: STK4 (Homo sapiens, UniProt Q13043); test: Kinase selectivity panel; type: biochemical; conditions: [ATP] = 1 mM
[8] = test system: pBAD, pSTAT3 and MYC in INA-6 (MM) tumors; test: pBAD, pSTAT3 and MYC levels in INA-6 (MM) tumors; type: in vivo, mouse; conditions: INA-6 (MM) tumors in mice
Method: The PI3Kδ inhibitor INCB050465 (10 mg/kg once a day orally) was evaluated in combination with INCB053914 (30 mg/kg once a day orally) in mice bearing Pfeiffer (DLBCL) xenografts, a model sensitive to PI3Kδ inhibition (eight mice/group). Cytarabine was administered via intraperitoneal injection at a standard dose of 20 mg/kg twice a week, in combination with oral INCB053914 at a submaximally efficacious dose of 20 mg/kg twice a day for 12 days in mice bearing human KG-1 AML xenografts, a cytarabine-sensitive model (eight mice/group). The oral JAK1-selective inhibitor itacitinib (60 mg/kg twice a day orally) was assessed in combination with INCB053914 (100 mg/kg twice a day orally) after 8 days of administration to SCID mice bearing INA-6 (MM) xenografts (eight mice/group), a model sensitive to JAK inhibition.

[9] = test system: BAD phosphorylation in whole blood spiked with KMS-12-BM cells; test: BAD phosphorylation in whole blood samples spiked with tumor cells, treated ex vivo; type: cell-based; conditions: Homo sapiens
[10] = test system: BAD phosphorylation in whole blood spiked with MOLM-16 cells; test: as above; type: cell-based; conditions: MOLM16
[11] = biological target: TGFBR1 (Homo sapiens, UniProt P36897); test: Kinase selectivity panel; type: biochemical; conditions: [ATP] = 1 mM
[12] = biological target: AXL (Homo sapiens, UniProt P30530); test: Kinase selectivity panel; type: biochemical; conditions: [ATP] = 1 mM
[13] = biological target: DDR2 (Homo sapiens, UniProt Q16832); test: Kinase selectivity panel; type: biochemical; conditions: [ATP] = 1 mM
[14] = biological target: CDK2 (Homo sapiens, UniProt P24941); test: Kinase selectivity panel; type: biochemical; conditions: [ATP] = 1 mM
[15] = test system: KMS-12-BM (MM) xenografts; test: Tumor growth in KMS-12-BM (MM) xenograft; type: in vivo, mouse; conditions: KMS-12-BM tumors
Method: Female immune compromised (severe combined immunodeficiency [SCID]) mice (5–9 weeks of age; Charles River Laboratories, Wilmington, Massachusetts) were inoculated with MOLM-16, KG-1, or KMS-12-BM cells. A cell suspension in Dulbecco’s phosphate-buffered saline (DPBS) (1 × 10^8 cells/ml) was mixed 1:1 (v/v) with matrigel, and 200 μl was injected subcutaneously into the flank of each mouse. Studies of INCB053914 combination regimens used xenograft models derived from INA-6 (MM) cells or Pfeiffer (DLBCL) cells. INA-6 tumor fragments were injected subcutaneously as brei (100 μl in Hank’s balanced salt solution [HBSS, 1:10 v/v]) into the flank of each mouse; Pfeiffer tumor fragments (1 cm × 1 cm) were directly implanted. The treatment of tumor-bearing mice started 7 to 24 days after tumor inoculation for efficacy studies and approximately 14 to 27 days after tumor inoculation for pharmacodynamic studies.
For efficacy studies, mice were sorted to obtain approximately equivalent mean tumor volumes in each group. The starting mean tumor volume in efficacy studies for all groups ranged from 158 mm^3 to 249 mm^3, and groups consisted of eight or nine animals. The mean tumor volume in pharmacodynamic studies for all groups ranged from 114 mm^3 to 833 mm^3, and groups consisted of three to eight animals. INCB053914 was administered by oral gavage twice a day for 7 to 19 days (suspension in 5% dimethylacetamide with 0.5% w/v methylcellulose [Sigma-Aldrich]) or by subcutaneous continuous infusion (Alzet osmotic pumps; flow rate 0.5 μl/h for efficacy studies and 1.0 μl/h for pharmacodynamic studies).
For the evaluation of the effects of INCB053914 on tumor growth, tumor-bearing mice (MOLM-16 xenograft, eight mice/group; KMS-12-BM xenograft, nine mice/group) were dosed orally twice a day with INCB053914 at doses ranging from 0 (vehicle) to 100 mg/kg for 15 days.
Tumor volume was calculated in two dimensions using the equation: volume = [length × (width^2)] / 2, where the larger number was length and the smaller number was width. Effects on tumor growth were reported as percent tumor growth inhibition calculated as (1 − [treatment volume / control volume]) × 100, where control volume was the vehicle/untreated tumor volume on a given day and treatment volume was any treatment group tumor volume on that same day. Statistical significance of differences between treatment and vehicle controls was assessed using analysis of variance single factor test.

[16] = test system: Pfeiffer DLBCL cells; test: In vitro proliferation of Pfeiffer DLBCL cells, single agents and combination; type: cell-based
Method: Synergistic effects of INCB053914 in combination with INCB050465, cytarabine, or itacitinib, were assessed based on the Bliss independence model. In this model, the expected additive effect, with the assumption that concentration dependent effects of 2 drugs (A and B) are independent, is given by the equation EIND = EA + EB – EA •EB, where 0 ≤ EIND ≤ 1; EA and EB are the magnitudes of effects of A and B alone at given concentrations.
The interaction between effects of A and B can be described by the equation Combination Index = EIND/ EOBS, where EOBS is the observed combined effect of A + B expressed as a probability (0 ≤ EOBS ≤ 1). If the point estimate of Combination Index and its upper 97.5% confidence limit are <1 then the combined effect is synergistic; if the 2-sided 95% confidence intervals (CI) encompass 1 then the combined effect is additive (ie, independent); if the point estimate of Combination Index and the lower 2.5% confidence limit are >1 then the combined effect of A + B are antagonistic.

[17] = biological target: LCK (Homo sapiens, UniProt P06239); test: Kinase selectivity panel; type: biochemical; conditions: [ATP] = 1 mM

Sequence of TGFBR1 (P36897 34-503, species assumed): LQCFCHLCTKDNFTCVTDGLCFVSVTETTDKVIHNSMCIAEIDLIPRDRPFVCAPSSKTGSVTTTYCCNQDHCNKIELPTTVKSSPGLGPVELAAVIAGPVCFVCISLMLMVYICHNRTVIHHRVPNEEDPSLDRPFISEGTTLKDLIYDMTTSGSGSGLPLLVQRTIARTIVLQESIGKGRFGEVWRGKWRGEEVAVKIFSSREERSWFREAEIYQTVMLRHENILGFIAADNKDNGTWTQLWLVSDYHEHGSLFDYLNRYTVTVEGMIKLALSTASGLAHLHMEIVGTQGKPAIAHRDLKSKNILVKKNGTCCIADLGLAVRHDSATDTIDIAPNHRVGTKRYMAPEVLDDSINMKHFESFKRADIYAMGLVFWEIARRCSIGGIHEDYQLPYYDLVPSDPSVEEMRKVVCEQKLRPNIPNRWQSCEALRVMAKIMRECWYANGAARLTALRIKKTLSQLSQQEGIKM
Sequence of STK4 (Q13043 whole entry, species assumed): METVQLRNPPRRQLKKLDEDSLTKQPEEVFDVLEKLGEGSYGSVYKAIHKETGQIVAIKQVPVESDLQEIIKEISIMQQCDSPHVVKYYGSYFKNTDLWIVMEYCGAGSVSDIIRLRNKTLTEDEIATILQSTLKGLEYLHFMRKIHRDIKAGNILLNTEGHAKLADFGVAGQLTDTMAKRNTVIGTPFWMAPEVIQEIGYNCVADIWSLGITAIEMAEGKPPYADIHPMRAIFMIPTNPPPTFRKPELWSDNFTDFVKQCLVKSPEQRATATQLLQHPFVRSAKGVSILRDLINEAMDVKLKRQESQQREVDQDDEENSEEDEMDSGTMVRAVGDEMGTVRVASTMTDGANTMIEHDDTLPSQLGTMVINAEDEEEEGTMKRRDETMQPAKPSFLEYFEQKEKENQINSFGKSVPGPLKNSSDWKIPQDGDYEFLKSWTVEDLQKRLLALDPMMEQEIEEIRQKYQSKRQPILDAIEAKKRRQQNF
Sequence of DDR2 (Q16832 22-855): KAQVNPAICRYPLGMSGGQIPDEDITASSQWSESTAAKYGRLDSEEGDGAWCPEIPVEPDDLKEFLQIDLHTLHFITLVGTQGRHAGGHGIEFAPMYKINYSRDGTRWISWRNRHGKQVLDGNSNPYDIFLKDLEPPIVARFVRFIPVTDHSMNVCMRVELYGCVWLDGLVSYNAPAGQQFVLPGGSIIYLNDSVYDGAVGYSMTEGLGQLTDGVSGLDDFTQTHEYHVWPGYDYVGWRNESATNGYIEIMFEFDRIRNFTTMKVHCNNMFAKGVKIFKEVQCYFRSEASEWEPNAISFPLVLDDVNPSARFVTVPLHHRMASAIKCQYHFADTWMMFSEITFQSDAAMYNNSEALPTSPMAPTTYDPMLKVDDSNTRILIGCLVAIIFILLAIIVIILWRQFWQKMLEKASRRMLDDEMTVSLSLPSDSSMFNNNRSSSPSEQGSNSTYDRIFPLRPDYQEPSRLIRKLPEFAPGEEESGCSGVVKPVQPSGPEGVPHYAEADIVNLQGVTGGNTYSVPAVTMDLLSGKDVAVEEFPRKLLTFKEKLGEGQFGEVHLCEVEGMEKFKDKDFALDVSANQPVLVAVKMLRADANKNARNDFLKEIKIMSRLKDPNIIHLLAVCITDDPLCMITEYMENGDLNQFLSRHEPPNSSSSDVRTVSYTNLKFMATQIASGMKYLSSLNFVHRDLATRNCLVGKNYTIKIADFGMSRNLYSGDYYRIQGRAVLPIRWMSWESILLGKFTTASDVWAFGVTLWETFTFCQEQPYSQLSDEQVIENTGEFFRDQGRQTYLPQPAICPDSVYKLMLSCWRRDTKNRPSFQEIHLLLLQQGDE
Sequence of MAP3K8 (P41279 whole entry): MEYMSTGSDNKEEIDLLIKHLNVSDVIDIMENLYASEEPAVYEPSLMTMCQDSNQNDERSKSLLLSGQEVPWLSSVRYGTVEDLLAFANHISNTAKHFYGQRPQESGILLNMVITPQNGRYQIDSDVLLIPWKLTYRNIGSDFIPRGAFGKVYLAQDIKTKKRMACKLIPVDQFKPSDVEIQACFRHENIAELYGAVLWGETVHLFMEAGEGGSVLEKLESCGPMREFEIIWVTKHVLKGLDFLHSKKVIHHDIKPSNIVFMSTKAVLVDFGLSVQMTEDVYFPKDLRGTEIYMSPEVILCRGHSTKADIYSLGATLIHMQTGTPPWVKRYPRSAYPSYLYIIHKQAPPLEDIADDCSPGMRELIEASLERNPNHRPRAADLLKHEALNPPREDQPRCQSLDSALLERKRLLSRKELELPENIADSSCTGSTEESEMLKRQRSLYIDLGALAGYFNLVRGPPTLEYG
Sequence of PDGFR BETA (P09619 33-1106): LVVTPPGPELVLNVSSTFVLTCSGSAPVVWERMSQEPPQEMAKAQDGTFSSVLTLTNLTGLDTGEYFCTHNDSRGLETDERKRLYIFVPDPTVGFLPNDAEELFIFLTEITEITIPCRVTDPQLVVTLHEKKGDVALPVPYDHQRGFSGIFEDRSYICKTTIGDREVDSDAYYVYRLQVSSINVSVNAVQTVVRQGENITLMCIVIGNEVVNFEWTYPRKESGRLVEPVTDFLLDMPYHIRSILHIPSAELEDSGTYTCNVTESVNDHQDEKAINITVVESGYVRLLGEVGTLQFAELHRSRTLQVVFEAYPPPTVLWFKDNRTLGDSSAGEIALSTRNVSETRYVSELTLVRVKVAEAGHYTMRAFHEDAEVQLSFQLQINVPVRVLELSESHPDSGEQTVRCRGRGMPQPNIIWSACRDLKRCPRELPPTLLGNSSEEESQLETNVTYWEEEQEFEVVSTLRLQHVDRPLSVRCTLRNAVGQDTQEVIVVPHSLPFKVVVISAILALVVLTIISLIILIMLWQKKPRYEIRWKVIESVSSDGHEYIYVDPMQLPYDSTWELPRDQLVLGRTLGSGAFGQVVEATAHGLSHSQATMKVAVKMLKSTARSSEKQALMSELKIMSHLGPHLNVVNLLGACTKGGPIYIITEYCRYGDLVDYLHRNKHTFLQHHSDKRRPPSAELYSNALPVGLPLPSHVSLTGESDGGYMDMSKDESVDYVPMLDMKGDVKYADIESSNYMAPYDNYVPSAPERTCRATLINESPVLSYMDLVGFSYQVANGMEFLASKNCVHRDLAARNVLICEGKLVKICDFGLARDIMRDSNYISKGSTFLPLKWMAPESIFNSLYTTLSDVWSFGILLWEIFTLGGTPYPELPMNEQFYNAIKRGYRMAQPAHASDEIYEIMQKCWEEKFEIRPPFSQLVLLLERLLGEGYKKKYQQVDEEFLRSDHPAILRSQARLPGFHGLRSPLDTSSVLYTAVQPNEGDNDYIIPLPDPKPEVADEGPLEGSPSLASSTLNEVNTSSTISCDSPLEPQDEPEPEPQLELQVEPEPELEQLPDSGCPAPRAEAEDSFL
Sequence of MSSK1 (Q9UPE1 whole entry): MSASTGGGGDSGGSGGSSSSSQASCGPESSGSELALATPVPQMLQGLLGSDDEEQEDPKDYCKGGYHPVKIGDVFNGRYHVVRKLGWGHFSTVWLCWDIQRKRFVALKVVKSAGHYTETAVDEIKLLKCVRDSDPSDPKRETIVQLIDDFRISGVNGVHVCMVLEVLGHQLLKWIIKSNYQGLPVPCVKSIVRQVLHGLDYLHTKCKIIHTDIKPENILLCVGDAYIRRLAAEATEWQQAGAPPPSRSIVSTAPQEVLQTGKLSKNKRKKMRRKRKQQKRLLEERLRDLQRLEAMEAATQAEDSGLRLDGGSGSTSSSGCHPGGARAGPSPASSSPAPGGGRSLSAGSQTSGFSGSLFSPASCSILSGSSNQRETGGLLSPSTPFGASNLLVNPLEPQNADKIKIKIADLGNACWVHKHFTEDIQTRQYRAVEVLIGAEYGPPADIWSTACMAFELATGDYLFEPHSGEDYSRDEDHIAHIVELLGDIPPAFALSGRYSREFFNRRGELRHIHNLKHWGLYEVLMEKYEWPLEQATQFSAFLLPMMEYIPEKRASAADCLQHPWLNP
Sequence of FLT3 (P36888 27-993): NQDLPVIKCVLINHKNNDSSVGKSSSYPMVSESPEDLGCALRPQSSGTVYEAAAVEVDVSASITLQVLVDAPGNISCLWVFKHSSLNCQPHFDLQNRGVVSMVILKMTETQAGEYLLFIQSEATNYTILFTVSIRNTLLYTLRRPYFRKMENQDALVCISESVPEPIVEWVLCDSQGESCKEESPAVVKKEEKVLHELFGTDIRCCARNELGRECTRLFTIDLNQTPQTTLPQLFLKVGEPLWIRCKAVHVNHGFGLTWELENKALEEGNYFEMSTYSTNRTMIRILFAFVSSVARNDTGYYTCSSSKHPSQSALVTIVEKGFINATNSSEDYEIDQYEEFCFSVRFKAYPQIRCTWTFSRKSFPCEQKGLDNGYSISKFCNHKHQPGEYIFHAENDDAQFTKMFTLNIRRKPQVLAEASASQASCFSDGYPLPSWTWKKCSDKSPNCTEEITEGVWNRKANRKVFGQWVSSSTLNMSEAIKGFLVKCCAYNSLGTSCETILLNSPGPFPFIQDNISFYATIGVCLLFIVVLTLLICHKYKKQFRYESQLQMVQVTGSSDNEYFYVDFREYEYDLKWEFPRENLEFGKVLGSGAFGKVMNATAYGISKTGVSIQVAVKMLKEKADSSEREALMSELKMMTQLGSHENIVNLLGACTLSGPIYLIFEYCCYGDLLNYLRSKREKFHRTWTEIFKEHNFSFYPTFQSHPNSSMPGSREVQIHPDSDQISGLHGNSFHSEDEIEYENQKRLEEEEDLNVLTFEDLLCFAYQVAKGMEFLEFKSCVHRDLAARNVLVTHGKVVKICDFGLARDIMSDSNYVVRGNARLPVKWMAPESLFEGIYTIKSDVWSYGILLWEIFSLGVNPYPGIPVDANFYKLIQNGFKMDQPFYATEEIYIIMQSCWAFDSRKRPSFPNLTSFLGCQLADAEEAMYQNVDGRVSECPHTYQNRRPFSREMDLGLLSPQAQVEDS

SMILES: C[C@H]1CN(c2c(NC(=O)c3ccc(F)c(-c4c(F)cccc4F)n3)cnc3c2CC[C@H]3O)C[C@@H](N)[C@@H]1O.O=P(O)(O)O [INCB053914, N-((R)-4-((3R,4R,5S)-3-amino-4-hydroxy-5-methylpiperidin-1-yl)-7-hydroxy-6,7-dihydro-5H-cyclopenta[b]pyridin-3-yl)-6-(2,6-difluorophenyl)-5-fluoropicolinamide phosphate]
- kinases significantly inhibited in the panel of 192 kinases [1]: no kinase other than Per-Arnt-Sim (PAS) kinase was significantly inhibited
- IC50 [2]: > 20 µM
- IC50 [3]: > 20 µM
- IC50 [4]: > 20 µM
- IC50 [5]: > 20 µM
- IC50 [6]: > 20 µM
- IC50 [7]: > 20 µM
- MYC levels [8]: decreased MYC levels
- level of pBAD [8]: decrease
- IC50 [9]: 0.134 µM
- IC50 [10]: 0.076 µM
- IC50 [11]: > 20 µM
- IC50 [12]: > 20 µM
- IC50 [13]: > 20 µM
- IC50 [14]: > 20 µM
- tumor growth inhibition ([15]; 25 mg/kg twice a day): 43%
- tumor growth inhibition ([15]; 50 mg/kg twice a day): 71%
- tumor growth inhibition ([15]; 75 mg/kg twice a day): 77%
- tumor growth inhibition ([15]; 100 mg/kg twice a day): 88%
- proliferation of Pfeiffer cells, single agent [16]: inhibited
- IC50 [17]: > 20 µM
